The results in this text go back to publication PMC9320114 (Molecules, 2022).

One assay deals with T1, hMAO-A (Homo sapiens, UniProt P21397).
T1 construct: purchased Sigma Aldrich; host or cells: BTI-TN-5B1-4 baculovirus-infected insect cells
T1 sequence (P21397 1-527): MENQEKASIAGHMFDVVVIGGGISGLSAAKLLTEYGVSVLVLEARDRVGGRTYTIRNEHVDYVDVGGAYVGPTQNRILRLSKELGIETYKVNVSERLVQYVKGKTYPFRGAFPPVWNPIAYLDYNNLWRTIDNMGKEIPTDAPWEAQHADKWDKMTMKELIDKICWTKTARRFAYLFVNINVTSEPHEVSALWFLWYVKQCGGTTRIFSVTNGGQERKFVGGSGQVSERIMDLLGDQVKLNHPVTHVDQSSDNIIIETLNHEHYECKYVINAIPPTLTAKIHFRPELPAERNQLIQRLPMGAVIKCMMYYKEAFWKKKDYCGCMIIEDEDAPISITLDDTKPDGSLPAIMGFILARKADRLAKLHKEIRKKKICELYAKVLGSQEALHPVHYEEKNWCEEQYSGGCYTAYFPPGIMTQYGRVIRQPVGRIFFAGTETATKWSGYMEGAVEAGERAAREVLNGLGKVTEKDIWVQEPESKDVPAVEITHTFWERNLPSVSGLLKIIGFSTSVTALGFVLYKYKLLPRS
Nature of the assay: Inhibition of hMAO-A, fluorimetric Amplex Red assay. As to conditions: residual activity at 10 µM. The class given is biochemical. The procedure: (§1) The effects of the compounds on hMAO-A and hMAO-B were investigated using a fluorimetric assay, following a method previously described in the literature. Recombinant human microsomal hMAO enzymes expressed in BTI-TN-5B1-4 baculovirus-infected insect cells, horseradish peroxidase (HRP, type II, lyophilized powder), and p-tyramine hydrochloride were purchased from Sigma Aldrich. 10-Acetyl-3,7-dihydroxyphenoxazine (Amplex Red reagent) was synthesized as described in the literature.
Briefly, 100 µL of 50 mM sodium phosphate buffer (pH 7.4, 0.05% (v/v) Triton X-114), containing the compounds and hMAO-A or hMAO-B, was incubated for 15 min at 37 °C in a flat-bottomed black 96-well microplate protected from ambient light. After preincubation, the reaction was started by adding final concentrations of 200 µM Amplex Red reagent, 2 U/mL HRP, and 1 mM p-tyramine hydrochloride. Resorufin production was quantified based on the fluorescence produced (λex = 530 nm; λem = 590 nm) at 37 °C over a 20 min period. For the control experiments, DMSO was used instead of appropriate dilutions of the compounds in DMSO. For the determination of blank (b), the enzyme solution was replaced by a phosphate-buffered solution. Initial velocities were calculated from the obtained trend, with each measurement performed in duplicate. Specific fluorescence emission to determine the final results was calculated after subtracting the blank activity (b). Inhibitory potencies were expressed as RAs, and IC50 values were calculated as described in the section “Inhibition of hBChE and mAChE” above.

The target of another assay is MurC (Escherichia coli, UniProt P17952). As to the kind of experiment: Inhibition of MurC, colorimetric malachite green method. The class given is biochemical, bacterial. Particulars: for remaining activity at 50 µM / remaining activity at 100 µM: 0.25 h; for remaining activity at 50 µM: read-out: MurC (RA [%]); for remaining activity at 100 µM: residual activity at 100 µM, read-out: MurC RA (%). The procedure: (§2) Inhibition of Mur enzymes was monitored with the colorimetric malachite green method, which measured orthophosphate formed during reaction. The mixtures with a final volume of 50 µL contained:
MurC: 50 mM HEPES-NaOH, pH 8.0, 5 mM MgCl2, 0.005% Triton X-114, 120 µM L-Ala, 120 µM UDP-N-acetyl-muramic acid, 450 µM ATP, purified MurC, and 50 or 100 µM of each compound tested.
(§3) All compounds were soluble in the assay mixtures containing 5% DMSO (v/v). After incubation for 15 min (20 min for DdlB) at 37 °C, the enzyme reaction was terminated by addition of Biomol® reagent (100 µL) and absorbance was measured after 5 min at 650 nm (Synergy™ H4 microplate reader; BioTek Instruments, Inc., BioTek Gen5 Data Analysis Software, version 2.9, Santa Clara, CA, USA). All experiments were performed in duplicate.

The target of the next assay is DdlB (Escherichia coli, UniProt P07862). Nature of the assay: Inhibition of DdlB, colorimetric malachite green method. The format is biochemical, bacterial. Particulars: 20 min, read-out: DdlB (RA [%]). The procedure: as §2
DdlB: 50 mM HEPES-NaOH, pH 8.0, 5 mM MgCl2, 6.5 mM (NH4)2SO4, 10 mM KCl, 0.005% Triton X-114, 700 µM D-Ala, 500 µM ATP, purified DdlB, and 50 µM of each compound tested.
as §3

A further assay deals with MurA (Escherichia coli, UniProt P0A749). Nature of the assay: Inhibition of MurA, colorimetric malachite green method. As to conditions: for remaining activity at 50 µM: 0.25 h, read-out: MurA (RA [%]); for RA (MurA, 50 µM): residual activity at 50 µM, Figure 1; for MurA RA (%): residual activity at 100 µM, Table 1. The class given is biochemical, bacterial. The procedure: as §2
MurA, sequence (P0A749 whole entry): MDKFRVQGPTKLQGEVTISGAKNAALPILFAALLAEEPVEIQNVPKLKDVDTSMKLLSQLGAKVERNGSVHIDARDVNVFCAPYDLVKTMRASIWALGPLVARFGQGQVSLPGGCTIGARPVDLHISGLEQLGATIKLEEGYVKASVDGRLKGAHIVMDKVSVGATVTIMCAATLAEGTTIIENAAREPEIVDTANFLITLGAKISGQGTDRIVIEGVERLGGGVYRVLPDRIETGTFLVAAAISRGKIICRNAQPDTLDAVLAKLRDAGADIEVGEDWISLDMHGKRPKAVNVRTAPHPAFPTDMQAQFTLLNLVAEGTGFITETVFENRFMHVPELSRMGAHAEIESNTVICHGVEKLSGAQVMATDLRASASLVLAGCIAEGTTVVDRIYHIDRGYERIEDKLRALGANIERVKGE
MurA: 50 mM HEPES-NaOH, pH 7.8, 0.005% Triton X-114, 200 µM uridine-diphosphate-N-acetylglucosamine, 100 µM phosphoenolpyruvate, purified MurA, and 50 or 100 µM of each compound tested.
as §3

Another assay addresses T2, hMAO-B (Homo sapiens, UniProt P27338).
T2 construct: purchased Sigma Aldrich; host or cells: BTI-TN-5B1-4 baculovirus-infected insect cells
T2 sequence (P27338 1-520): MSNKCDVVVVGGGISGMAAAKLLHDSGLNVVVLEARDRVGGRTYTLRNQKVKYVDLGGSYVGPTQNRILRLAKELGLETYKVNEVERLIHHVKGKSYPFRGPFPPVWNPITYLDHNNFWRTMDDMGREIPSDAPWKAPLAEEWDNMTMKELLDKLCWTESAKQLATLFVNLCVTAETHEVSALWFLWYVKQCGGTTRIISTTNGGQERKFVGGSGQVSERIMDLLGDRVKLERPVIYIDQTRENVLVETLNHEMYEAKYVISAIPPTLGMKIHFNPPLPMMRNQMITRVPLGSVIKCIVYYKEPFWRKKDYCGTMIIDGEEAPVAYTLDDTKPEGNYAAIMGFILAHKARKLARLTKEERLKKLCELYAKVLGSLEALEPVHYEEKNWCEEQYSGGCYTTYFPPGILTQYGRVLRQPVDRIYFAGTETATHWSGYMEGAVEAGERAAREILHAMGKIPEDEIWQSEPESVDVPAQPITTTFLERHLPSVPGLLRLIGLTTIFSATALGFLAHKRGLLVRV
Nature of the assay: biochemical. Particulars: for IC50: IC50 ± SEM.
Description: as §1
After preincubation, the reaction was started by adding final concentrations of 200 µM Amplex Red reagent, 2 U/mL HRP, and 1 mM p-tyramine hydrochloride. Resorufin production was quantified based on the fluorescence produced (λex = 530 nm; λem = 590 nm) at 37 °C over a 20 min period. For the control experiments, DMSO was used instead of appropriate dilutions of the compounds in DMSO. For the determination of blank (b), the enzyme solution was replaced by a phosphate-buffered solution. Initial velocities were calculated from the obtained trend, with each measurement performed in duplicate. Specific fluorescence emission to determine the final results was calculated after subtracting the blank activity (b). Inhibitory potencies were expressed as RAs, and IC50 values were calculated as described in the section “Inhibition of hBChE and mAChE” above.

Setting [1] is: Mini Library screen, Table S1, read-out: hMAO-A (RA [%]).
Where [2] appears, read: residual activity at 10 µM, Mini Library screen, Table S1, read-out: hMAO-B (RA [%]).
Where [3] appears, read: Table 3, read-out: hMAO-A RA (%).
[4] abbreviates: residual activity at 10 µM, Table 3, read-out: hMAO-B RA (%).

Each structure is given as a SMILES string. Like-named read-outs stand apart in the source and are kept apart here.

MurC, sequence (P17952 whole entry): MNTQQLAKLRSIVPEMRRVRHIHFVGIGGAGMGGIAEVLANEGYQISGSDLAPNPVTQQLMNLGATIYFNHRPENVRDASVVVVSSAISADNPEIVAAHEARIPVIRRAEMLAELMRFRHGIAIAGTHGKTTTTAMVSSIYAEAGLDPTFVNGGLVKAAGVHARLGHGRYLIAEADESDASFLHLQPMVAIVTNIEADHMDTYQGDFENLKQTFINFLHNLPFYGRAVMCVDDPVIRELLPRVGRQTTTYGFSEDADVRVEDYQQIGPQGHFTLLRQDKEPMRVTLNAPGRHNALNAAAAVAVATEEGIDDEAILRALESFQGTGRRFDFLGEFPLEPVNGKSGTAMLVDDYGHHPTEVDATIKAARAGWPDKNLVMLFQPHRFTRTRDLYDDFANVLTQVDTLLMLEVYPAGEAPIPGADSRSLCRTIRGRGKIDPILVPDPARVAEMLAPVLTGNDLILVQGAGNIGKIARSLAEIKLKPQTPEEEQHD

Turning to `CCCCCCN(Cc1ccc(C#Cc2ccc(CCCC)cc2)cc1)c1ccc(O)c(C(=O)O)c1` [MS-ML24], the remaining activity at 10 µM on hMAO-A (setting [1]) was 57%; on hMAO-B (setting [2]), 64%. In addition, the remaining activity at 50 µM at MurC stood at 83%; on DdlB, 116%; at MurA, 15%. On MurA, the half-maximal inhibitory concentration (IC50) came to 7 ± 3 µM. The “RA (MurA, 50 µM)” value on MurA is listed as 15%. Besides, the “MurA RA (%)” value on MurA is given as 0%.

Take `C1=C(c2ccccc2)CCN(CCCCc2c[nH]c3ccccc23)C1` [MS-ML10]: the remaining activity at 10 µM on hMAO-A (setting [1]) was 75%; at hMAO-B (setting [2]), 82%. The remaining activity at 50 µM at MurC was determined as 74%; on DdlB, 96%; at MurA it was 110%.

For the molecule `CCCCCCN(Cc1ccc(C#Cc2ccc(CCCC)cc2)cc1)c1ccc(F)c(C(=O)O)c1` [MS-ML26], the remaining activity at 10 µM at hMAO-A (setting [1]) was found to be 60%. In addition, the remaining activity at 50 µM on MurC amounted to 73%. In addition, the remaining activity at 50 µM at DdlB came out at 114%. For the same molecule, on MurA, the IC50 amounted to 7 ± 4 µM; the remaining activity at 50 µM was 7%; the “RA (MurA, 50 µM)” value is 7%; the “MurA RA (%)” value was found to be 0%. Moreover, the remaining activity at 10 µM at hMAO-B (setting [2]) is 92%.

Regarding `CCCCc1nc2ccn(CC(=O)N3CCCCC3)c(=O)c2n1Cc1ccc(-c2ccccc2S(=O)(=O)NC(=O)OCc2ccccc2)cc1F` [MS-ML05], the remaining activity at 10 µM at hMAO-A (setting [1]) was 79%; at hMAO-B (setting [2]) it was 93%. The remaining activity at 50 µM on MurC came to 55%; at DdlB, 91%; on MurA, 90%. Also, at MurC (Table 2), the remaining activity at 100 µM came to 32%. Moreover, on MurC (Table 2, IC50 ± SEM, read-out: MurC IC50), the IC50 amounted to 101 ± 23 µM.

Regarding `Oc1ccc2[nH]cc(CCCCN3CC=C(c4ccccc4)CC3)c2c1` [MS-ML11], the remaining activity at 10 µM was 31% on hMAO-A (setting [1]) and 45% at hMAO-B (setting [2]). Also, the remaining activity at 50 µM on MurC came out at 89%; at DdlB, 95%; on MurA it was 100%.

Take `CCCCc1nc2ccn(Cc3ccccc3)c(=O)c2n1Cc1ccc(-c2ccccc2-c2nnn[nH]2)cc1` [MS-ML03]: the remaining activity at 10 µM was 83% on hMAO-A (setting [1]) and 97% at hMAO-B (setting [2]). Moreover, on MurC, the IC50 turned out to be 85 ± 15 µM. Also, the remaining activity at 50 µM stood at 61% at MurC, 81% at DdlB and 100% on MurA. Further, the remaining activity at 100 µM on MurC (Table 2) was determined as 40%.

With `CCCCCCN(Cc1ccc(C#Cc2ccc(CCCC)cc2)cc1)C(=O)c1ccc(O)c(C(=O)O)c1` [MS-ML25], the remaining activity at 10 µM on hMAO-A (setting [1]) amounted to 73%. Further, the remaining activity at 50 µM at MurC worked out at 98%. For the same molecule, at DdlB, the remaining activity at 50 µM was determined as 114%. For the same molecule, at MurA, the IC50 is 6 ± 2 µM; the remaining activity at 50 µM was determined as 0%; the “RA (MurA, 50 µM)” value came out at 0%; the “MurA RA (%)” value came out at 0%. Further, on hMAO-B (setting [2]), the remaining activity at 10 µM turned out to be 77%.

As for `O=C(OC[C@H]1CCCN1c1ccnc2ncnn12)c1ccc(Oc2ccccc2)nc1` [MS-ML31], the remaining activity at 10 µM on hMAO-A (setting [1]) is 78%; on hMAO-A (setting [3]), 98%; at hMAO-B (setting [2]), 13%; at hMAO-B (setting [4]), 17%. Also, the “hMAO-A RA [%]” value on hMAO-A (Table S3) worked out at 98%. The remaining activity at 50 µM on MurC was found to be 94%; on DdlB, 98%; at MurA, 94%. On hMAO-B (Table 3), this molecule returned a concentration for half-maximal inhibition (IC50) of 0.912 ± 0.122 µM. The “hMAO-B RA [%]” value on hMAO-B (residual activity at 10 µM, Table S3) is recorded as 17%.

With `O=C(Nc1ccc(Oc2ccncc2)cc1)Nc1cc(C(F)(F)F)ccc1-n1cncn1` [MS-ML80], the remaining activity at 10 µM came out at 82% on hMAO-A (setting [1]), 78% on hMAO-A (setting [3]), 11% on hMAO-B (setting [2]) and 10% at hMAO-B (setting [4]). Further, the figures for the remaining activity at 50 µM at MurC, on DdlB and on MurA were 96%, 94% and 93%, respectively. In addition, the IC50 at hMAO-B (Table 3) is 0.405 ± 0.076 µM.
